According to patent US20120122832A1, “METHOD OF MAKING CEFQUINOME PARTICLES” (priority 2009, published 2012):
Counter-ions that a name gives are not always drawn.

What was measured:
[1] = Particle size distribution (PSD) of precipitated cefquinome sulfate particles by laser light scattering; format: physicochemical
[2] = Particle size distribution of ethyl oleate formulations, Malvern Master Sizer with Hydro 2000G cell, Frauenhofer method; format: physicochemical; settings: Table 1, Malvern Master Sizer
Method: The particle size was determined with a Malvern Master Sizer GMAL 01 with the Hydro 2000G measuring cell according to Frauenhofer method.

[3] = 1 minute stirring only in the measurement equipment
[4] = 10 minutes stirring + 6 minutes of ultrasound
[5] = 10 minutes stirring only in the measurement equipment

| PSD D(50) [1, 3] [μm] | PSD D(100) [1, 3] [μm] | PSD DE(90) [1, 3] [μm] | PSD D(50) [1, 4] [μm] | PSD D(100) [1, 4] [μm] | PSD DE(90) [1, 4] [μm] | PSD D(50) [1, 5] [μm] | PSD D(100) [1, 5] [μm] | PSD DE(90) [1, 5] [μm] | D(0.50) [2] [μm] | D(0.90) [2] [μm] | D(100) [2] [μm] | SMILES |
| --- | --- | --- | --- | --- | --- | --- | --- | --- | --- | --- | --- | --- |
| 4.78 | 239.9 | 66.97 | 0.15 | 5.01 | 1.98 | 3.34 | 11.48 | 5.95 | – | – | – | CO/N=C(\C(=O)N[C@@H]1C(=O)N2C(C(=O)[O-])=C(C[n+]3cccc4c3CCCC4)CS[C@H]12)c1csc(N)n1 [Example 8, Cefquinome sulfate] |
| – | – | – | – | – | – | – | – | – | 63.01 | 114.75 | 178.25 | CO/N=C(\C(=O)N[C@@H]1C(=O)N2C(C(=O)[O-])=C(C[n+]3cccc4c3CCCC4)CS[C@H]12)c1csc(N)n1 [prior art non micronized material, cefquinome sulphate] |
